# Experimental data published in patent US20210244712A1, “METHODS FOR TREATING PATIENTS WITH CANCER HAVING DEFECTS IN CYCLIN D REGULATION” (NysnoBio Ireland DAC, priority 2018, published 2021).
# Entries after “also recorded” stand apart in the source; their conditions may differ. Like-named read-outs stand apart in the source and are kept apart here.
# Legend:
# A2780 = test: Cell proliferation assay; assay type: cell-based; details: Homo sapiens; for IC50: Ovarian A2780
# Method: (§1) Measurement of the inhibitive effect of compounds on cancer cell proliferation was performed. The assays were performed under the following conditions: Cells are harvested at a concentration of 4×10^4 cells/ml in media. Volumes of 100 μL/well of these cell suspensions were added to a 96 well plate using a multichannel pipette. Plates were gently agitated to ensure an even dispersion of cells over a given plate. Cells were then incubated at 37° C., 5% CO2 overnight. Following this, 100 μL of compound at varying concentrations was added to wells in triplicate. Control wells are those with 100 μL media containing 0.33% DMSO added to cell suspension (this is the equivalent volume of DMSO found in the highest concentration of drug). Plates were then gently agitated, as above, and incubated at 37° C., 5% CO2 for 72 hrs (control wells have reached 80-90% confluency). Assessment of cell proliferation in the presence of Compounds C and F was determined by the acid phosphatase assay.
# (§2) Following the incubation period of 72 hrs, media was removed from the plates. Each well on the plate was washed twice with 100 μL PBS. This was then removed and 100 μL of freshly prepared phosphatase substrate (10 mM p-nitrophenol phosphate in 0.1M sodium acetate, 0.1% triton X-100, pH 5.5) was added to each well. The plates were then incubated in the dark at 37° C. for 2 hours. Color development was monitored during this time. The enzymatic reaction was stopped by the addition of 50 μL of 1N NaOH. The plate was read in a dual beam plate reader at 405 nm with a reference wavelength of 620 nm. The absorbance reading of the latter is subtracted from the former, and the effect of the drug on cell proliferation was then measured as a percentage against the control cells (DMSO), which is taken as 0% inhibition.
# A549 = test: Cell proliferation assay; assay type: cell-based; details: Homo sapiens
# Method: as §1, §2
# HCT 116 = test: Cell proliferation assay; assay type: cell-based; details: Homo sapiens
# Method: as §1, §2
# Jeko-1 = test: Cell proliferation assay; assay type: cell-based; details: Homo sapiens; for IC50: Mantle Cell Jeko-1, overexpression of Cyclin D
# Method: as §1, §2
# OAW42 = test: Cell proliferation assay; assay type: cell-based; details: Homo sapiens, OAW-42; for IC50: Ovarian OAW42
# Method: as §1, §2
# TOV-112D = test: Cell proliferation assay; assay type: cell-based; details: Homo sapiens
# Method: as §1, §2
# TOV-21G = test: Cell proliferation assay; assay type: cell-based; details: Homo sapiens
# Method: as §1, §2
# cyclin D1 = test: Western blot of Cyclin D1, Example 6B; assay type: cell-based; details: 24 h, compared to control (DMSO)
# Method: Cells were plated at a density of 3×10^5 cells/well for 24 hrs. Representative compounds or DMSO alone was then added to the wells for 24 h at 250 nM (note: Compound F was administered at a concentration of 2 μM). Cells were trypsinised, pelleted, washed ×3 in PBS, and lysed using a 2% SDS lysis solution (Sigma—05030).
# Western blot analysis was then carried out to look at Cyclin D1 (Abeam—ab134175), PRK8 (Sigma—P6248), Rb (Abeam—[…]) and GAPDH (Sigma—G9545) levels.
# HCT-116 xenograft = test: Subcutaneous HCT-116 xenograft model, tumor volume; assay type: in vivo, nude mice; details: vs control
# Method: The efficacy of Compound 42, Compound F, and Compound Q3 were evaluated in the treatment of subcutaneous HCT-116 xenograft model in nude mice.
# Cell Culture: HCT-116 tumor cell lines were maintained in vitro as a monolayer culture in DMEM medium supplemented with 10% fetal bovine serum at 37° C. in an atmosphere of 5% CO2 in air. The tumor cells were routinely subcultured twice weekly by trypsin-EDTA treatment (0.05% Trypsin-EDTA) and 1:4 split: The cells in an exponential growth phase were harvested and counted for tumor inoculation.
# Tumor Inoculation: Each, mouse was inoculated subcutaneously at the flank region with HCT-1.16 cells (1.0×106) in 0.1 ml of 1×PBS mixed with Matrigel (1:1) for tumor development. The day Xenotransplantation was performed is denoted as day 0.
# Thirty (30) animals with approx 100-150 mm^3 tumors were selected for HCT-116 follow up experiment and randomly placed Into Groups 1, 2, […], 4, 5, and 6 as shown in Table 8.
# Group Assignment: Before grouping and treatment, all animals were weighed and fee tumor volumes were confirmed (100-150 mm^3) using electronic caliper. Since the tumor volume can affect fee effectiveness of any given treatment mice into groups using randomized block design as following: First the experimental animals were divided into homogeneous blocks based on their tumor volume. Secondly, within each block, randomization of experimental animals to different groups By using randomized block design to assign experimental animals, we ensure that each animal has the same probability of being assigned to any given treatment groups and therefore systematic error is minimized.
# Treatments were initiated when turner volume reached 100-150 mm^3. Treatments started on Day 5. Test compounds were administered intraperitoneally (II′) in 10 mg/mL solution comprising 10% N,N-dimethyl acetamide, 15% macrogol 15 hydroxy stearate, polyethylene glycol-15-hydroxystearate, and 75% aqueous hydroxypropyl-beta-cyclodextrin.
# Observation and data collection: After tumor cells inoculation, the animals were checked daily for morbidity and mortality. At the time of routine monitoring, the animals were checked for any adverse effects of tumor growth and treatments on normal behavior such as mobility, visual estimation of food and water consumption, body weight gain/loss, eye/hair matting and any other abnormal effects, Death and observed clinical signs were recorded, per […] IACUC. Tumor volumes were measured every 3-4 days in two dimensions using an electronic caliper, sad the volume data are expressed in, mm3 using the formula: V=0.5 a×b^2 where a and b are fee long and short diameters of the tumor, respectively. Dosing and tumor volume measurement procedures were conducted in a Laminar Flow Cabinet according to Altogen Labs IACUC regulations.
# Statistics: Summary statistics, the mean and the standard error of the mean (SEM), are provided for the tumor volume of each group at each time point. Statistical analysis of difference in tumor volume among the groups and the analysis of drug interaction were conducted on the data obtained after the final dose.
# [1] = CRC HCT-116, loss of p16 (mutant p53), read-out: Proliferation IC50
# [2] = Ovarian TOV112D, loss of p16 (mutant p53), read-out: Proliferation IC50
# [3] = Ovarian TOV21G, read-out: Proliferation IC50
# [4] = Groups 2-6 of Table 8 (Compound 42 1 and 5, Q3 5 and 15, F 25 mg/kg), IP daily for 20 days, 28 days
smiles,measurement,setting,value
"Cc1ccccc1C(=O)Nc1nc(NC(=O)c2ccccc2C)n(-c2ccc(OC(F)(F)F)cc2)n1 [Compound 42, N,N′-(1-(4-(trifluoromethoxy)phenyl)-1H-1,2,4-triazole-3,5-diyl)bis(2-methylbenzamide)]",IC50,A2780,84 nM
same,EC50,"A2780; Table 7a, Ovarian (A2780)",58 nM
same,EC50,"A549; Table 7a, Lung (A549)",72 nM
same,IC50,HCT 116; [1],87 nM
same,EC50,"HCT 116; Table 7a, Colon (HCT-116), read-out: EC50",87 nM
same,IC50,Jeko-1,154 nM
same,EC50,"Jeko-1; Table 7a, Mantle Cell (Jeko-1)",154 nM
same,IC50,OAW42,166 nM
same,EC50,"OAW42; Table 7a, Ovarian (OAW42)",166 nM
same,IC50,TOV-112D; [2],103 nM
same,EC50,"TOV-112D; Table 7a, Ovarian (TOV112D), read-out: EC50",98 nM
same,IC50,TOV-21G; [3],109 nM
same,EC50,"TOV-21G; Table 7a, Ovarian (TOV21G)",74 nM
same,Cyclin D1 expression,"cyclin D1; HCT-116, 250 nM",reduction of Cyclin D1 expression
same,Cyclin D1 expression,"cyclin D1; TOV-112, 250 nM",reduction of Cyclin D1 expression
same,tumor growth (tumor volume),"HCT-116 xenograft; 1 mg/kg, IP, over 28 days",reduce tumor growth
same,tumor growth (tumor volume),"HCT-116 xenograft; 5 mg/kg, IP, over 28 days",reduce tumor growth
same,tumor growth (tumor volume),HCT-116 xenograft; [4],reduce the tumor growth
"Cc1ccccc1C(=O)Nc1nc(NC(=O)c2ccccc2C)n(-c2ccccc2)n1 [Compound F, 2-methyl-N-[5-[(2-methylbenzoyl)amino]-1-phenyl-1,2,4-triazol-3-yl]benzamide]",IC50,A2780,1300 nM
same,IC50,"A549; A549, 72 hrs, read-out: Cell Viability: IC50",7.54 µM
same,IC50,HCT 116; [1],1300 nM
same,IC50,"HCT 116; HCT 116, 72 hrs, read-out: Cell Viability: IC50",2000 nM
same,IC50,Jeko-1,> 2500 nM
same,IC50,OAW42,> 2500 nM
same,IC50,"TOV-112D; TOV112D, TOV-112D, 72 hrs, read-out: Cell Viability: IC50",990 nM
same,IC50,TOV-112D; [2],850 nM
same,IC50,"TOV-21G; TOV21G, TOV-21G, 72 hrs, read-out: Cell Viability: IC50",1160 nM
same,IC50,TOV-21G; [3],1500 nM
same,Cyclin D1 expression,"cyclin D1; HCT-116, 2 μM",reduction of Cyclin D1 expression
same,Cyclin D1 expression,"cyclin D1; TOV-112, 2 μM",reduction of Cyclin D1 expression
same,tumor growth (tumor volume),"HCT-116 xenograft; 10 mg/kg, over 28 days",substantially reduce tumor growth
same,tumor growth (tumor volume),"HCT-116 xenograft; 25 mg/kg, IP, over 28 days",most substantially reduced; also recorded: substantially reduce tumor growth
same,tumor growth (tumor volume),HCT-116 xenograft; [4],reduce the tumor growth
